Experimental data taken from PubChem BioAssay AID720587 (Broad Institute, 2013).
Values joined by “and” are separate entries in the source; they are usually repeats but may differ in a detail not shown here. Identical values can stand only once.

These molecules were tested on A673 Ewing sarcoma viability, CellTiter-Glo ATP luminescence, 72 h (assay: A673 Ewing sarcoma viability loss – cell-based, CellTiter-Glo luminescence, cherry-pick retest, confirmation (AID 720587)).

| Structure (SMILES) | AC35 |
| --- | --- |
| COC(=O)C[C@@H]1CC[C@@H]2[C@H](COc3ccc(NC(=O)Nc4cccc(C#N)c4)cc3C(=O)N2C)O1 | 12 µM |
| CCCCCCCCCCCCCCCCCCNc1ccn(C2OC(COP(=O)(O)OCC3OC(n4cc(F)c(=O)[nH]c4=O)CC3O)C(O)C2O)c(=O)n1 (configuration not stated) | 0.137 µM |
| C[C@@H]1CN([C@@H](C)CO)C(=O)c2cc(NC(=O)c3ccccc3)ccc2O[C@@H](C)CCCCO[C@H]1CN(C)C(=O)Nc1cccc2ccccc12 | 0.62 µM |
| O=C(NCc1ccc(F)cc1)N1[C@H]2CC[C@@H]1C=C(c1ccc(F)cc1OCc1ccccc1)C2 | 1.89 µM |
| COC(=O)C[C@H]1C=C[C@@H](NC(=O)Nc2ccc(C(F)(F)F)cc2)[C@H](CO)O1 | 21.6 µM |
| COc1ccc(-c2cnc3c(NC=O)cc(-c4ccccc4OC)cn23)cc1OC | 0.101 µM |
| CC1(C)Oc2cc3oc(-c4cc(O)cc(O)c4)cc3cc2CC1O (configuration not stated) | 21.7 µM |
| Cc1ccc(/C=C2\SC(=S)N(CCCC(=O)NNC(=O)c3ccccc3O)C2=O)cc1 | 11.3 µM |
| Cc1ccc(S(=O)(=O)Nc2ccc3c(c2)C(=O)N([C@H](C)CO)C[C@H](C)[C@@H](CN(C)Cc2ccc(C(F)(F)F)cc2)OCCCC[C@H](C)O3)cc1 | 12.8 µM |
| COc1ccc(C2=Nn3c(nnc3-c3ccccc3F)SC2)cc1OC1CCOC1 (configuration not stated) | 13.5 µM |
| COc1ccc(C2c3cc4c(cc3OC(NNC(N)=O)C2C)OCO4)cc1 (configuration not stated) | 12.4 µM |
| COC(=O)C[C@@H]1CC[C@H]2[C@H](COc3ccc(NC(=O)Nc4cc(C)cc(C)c4)cc3C(=O)N2C)O1 | 22.2 µM |
| C[C@H](O)C#Cc1ccc2c(c1)O[C@@H](CN(C)Cc1ccc(-c3ccccc3)cc1)[C@H](C)CN([C@@H](C)CO)S2(=O)=O | 5.46 µM and 7.12 µM |
| Cc1c(CCOC(=O)CC23CC4CC(CC(C)(C4)C2)C3)sc[n+]1CC(=O)c1ccccc1 | 19.5 µM |
| CN(C)C(=S)N=Nc1[nH]c2ccccc2c1O | 11.1 µM |
| Cc1cc(C)c2sc(NNC(=O)c3ccc(S(=O)(=O)N4CCc5ccccc5C4)cc3)nc2c1 | 1.19 µM |
| CCOc1ccc2nc(NC3=NC(c4ccc(OC)cc4)CC(=O)N3)nc(C)c2c1 (configuration not stated) | 12.1 µM |
| C[C@@H]1CN([C@H](C)CO)C(=O)c2cc(NC(=O)c3ccccc3)ccc2O[C@@H](C)CCCCO[C@H]1CN(C)C(=O)Nc1cccc2ccccc12 | 2.17 µM |
| O=C(CCCN1C(=O)S/C(=C\c2ccccc2)C1=O)NNC(=O)c1ccccc1O | 18.7 µM |
| CCCCc1c(-c2ccccc2OC)ncn1Cc1ccc(C(C)(C)C)cc1 | 11.8 µM |
| COc1ccc(-c2ccc3c(c2)[C@H]2[C@H](CCN2S(=O)(=O)c2ccc(OC)cc2)[C@@H](CO)N3C)cc1 | 6.76 µM |
| C[C@@H]1CN([C@@H](C)CO)C(=O)Cc2cc(NC(=O)Nc3ccc(C(F)(F)F)cc3)ccc2O[C@@H]1CN(C)Cc1ccc(C(=O)Nc2ccccc2N)cc1 | 10.9 µM |
| BrC(=C\c1ccccc1)/C=N/n1cnnc1 | 2.23 µM |

| Structure (SMILES) | AC35 |
| --- | --- |
| COc1ccc(CN(C)C[C@H]2Oc3ccc(NC(=O)CCCCCC(=O)Nc4ccccc4N)cc3CC(=O)N([C@H](C)CO)C[C@H]2C)cc1 | 18 µM |
| C[C@H]1CN([C@@H](C)CO)C(=O)c2cc(NC(=O)C3CCCCC3)ccc2O[C@H]1CN(C)Cc1ccc(C(=O)Nc2ccccc2N)cc1 | 11.5 µM |
| CCOc1cc(N2CCC(O)CC2)ccc1Nc1ncc2c(n1)N(C)c1ccccc1C(=O)N2C | 21 µM |
| N#CC(C#N)=C1C=CC=CN1/C(=C\c1ccco1)C(=O)c1ccc(Cl)cc1 | 3.04 µM |
| CC12CCC3C(CCC4(O)CC(O)CCC34C=NO)C1(O)CCC2C1=COC(=O)C1 (configuration not stated) | 0.251 µM |
| CCN1/C(=C/C(C)=C/c2sc3ccccc3[n+]2CC)Sc2ccccc21 | 1.36 µM |
| O=C(CCCN1C(=O)/C(=C/c2ccccc2Cl)SC1=S)NNC(=O)c1ccc(Cl)cc1 | 23.9 µM |
| CN=c1scc(-c2cccs2)n1/N=C/c1ccccc1O | 16.9 µM |
| Cc1cc(C)cc(N2C(=O)NC(=O)/C(=C\C=C\c3ccco3)C2=O)c1 | 3.84 µM |
| CC(C)N1C/C(=C/c2ccsc2)C(=O)/C(=C/c2ccsc2)C1 | 5.27 µM |
| COc1ccc(OC)c(-c2nnc3n2N=C(c2ccc(OC)c(OC4CCOC4)c2)CS3)c1 (configuration not stated) | 3.24 µM |
| CCc1nc(N)nc(N)c1-c1ccc(Cl)c(N=[N+]=[N-])c1 | 7.14 µM |
| C[C@@H]1CN([C@@H](C)CO)C(=O)c2cccc(NC(=O)CCCCCC(=O)Nc3ccccc3N)c2O[C@@H]1CN(C)Cc1ccc(Oc2ccccc2)cc1 | 14.8 µM |
| C[C@H](CO)N1C[C@H](C)[C@H](CN(C)CC2CCCCC2)Oc2ccc(NC(=O)Nc3cccc4ccccc34)cc2C1=O | 18.7 µM |
| O=c1[nH]c(/C=C2\C=Nc3ccccc32)c(O)n1Cc1ccccc1F | 3.16 µM |
| O=c1c(Cl)cc(Cl)nn1-c1ccccc1 | 5.55 µM |
| COc1cccc(CN2CCC2(C)C(=O)Nc2cccc3cccnc23)c1F (configuration not stated) | 14.3 µM |
| N=c1ccn2c(n1)O[C@H]1[C@H](O)[C@@H](CO)O[C@H]12 | 0.74 µM |
| Nc1ccc(Cn2ccc3c4c(N)nc(N)nc4ccc32)cc1 | 0.0589 µM |
| C/C(=C\c1ccccc1)C(=O)N1CCC=CC1=O | 9 µM |
| Cc1ccc(S(=O)(=O)N(C)C[C@@H]2Oc3cc(C#Cc4ccncc4)ccc3S(=O)(=O)N([C@@H](C)CO)C[C@H]2C)cc1 | 21.1 µM |
| CC(=O)OC1CC2(O)C3CCC4CC(O)CCC4(C)C3CCC2(C)C1C1=CC(=O)OC1 (configuration not stated) | 0.213 µM |
| CC12CCC(O)CC1CCC1C2CCC2(C)C(C3=CC(=O)OC3)CCC12O (configuration not stated) | 0.385 µM |

| Structure (SMILES) | AC35 |
| --- | --- |
| CCC1=Nc2cc(C(=O)NCC3CCCO3)ccc2Sc2ccc(Br)cc21 (configuration not stated) | 4.39 µM |
| O=C(C1CC1)N1C[C@@H]2N[C@H](C1)C2c1ccc(/C=C/c2ccccc2)cc1 (some centres not stated) | 15.2 µM |
| CC(C)Oc1ccc(Br)cc1C(=O)N/N=C/c1c[nH]c2ccccc12 | 22.6 µM |
| COc1cc2c(cc1NC(=O)CN(C)Cc1ccc(OC)c(OC)c1)oc1ccccc12 | 21.5 µM |
| COc1ccccc1C(CCNCc1ccc(N(C)C)cc1)c1ccc(OC(C)C)cc1 (configuration not stated) | 4.19 µM |
| CCc1ccc(/C=C2\SC(=S)N(CCCC(=O)NCCCN3CCOCC3)C2=O)cc1 | 18.7 µM |
| CC(C)(C)C(=O)Cn1ncc(Cl)c(Cl)c1=O | 2.73 µM |
| Cc1nc(N)nc(N)c1-c1ccc(Cl)c(Cl)c1 | 0.928 µM |
| CO[C@H]1CN(C)C(=O)c2cc(NC(=O)c3ccc(Oc4ccccc4)cc3)ccc2OC[C@H](C)NC[C@@H]1C | 12.3 µM |
| COc1ccc(C(C)(O)c2nc(-c3cccc(F)c3)cs2)cc1 (configuration not stated) | 9.33 µM |
| Cc1ccc(OCCNC(=O)c2cccc(S(=O)(=O)NCc3ccccc3)c2)cc1 | 4.65 µM |
| C=C1C(=O)OC2C1CCC(C)C1C=CC(=O)C12C (configuration not stated) | 7.41 µM |
| CC(C)N1C/C(=C/c2cccnc2)C(=O)/C(=C/c2cccnc2)C1 | 10.5 µM |
| CCOC(=O)[C@]12Cc3ccc(C)cc3[C@H]1N(C1CCCCC1)C(=O)c1ccccc12 | 5.01 µM |
| O=C(C[C@@H]1C[C@H]2c3cc(NS(=O)(=O)c4ccc(F)cc4)ccc3O[C@H]2[C@H](CO)O1)NCc1ccc(-c2ccccc2)cc1 | 4.21 µM |
| COc1ccc(/C=C2\Oc3ccccc3C2=O)cc1 | 22.9 µM |
| CC(=NNc1cc(C)c2ccccc2n1)c1ccccn1 | 0.417 µM |
| Cc1nc(N)nc(N)c1CCCc1ccc(Cl)c(Cl)c1 | 2.8 µM |
| O=C1c2ccccc2C(=O)N1CCCCNc1ccccc1 | 10.8 µM |
| C[C@H]1CN([C@@H](C)CO)C(=O)Cc2cc(NC(=O)C3CC3)ccc2O[C@H]1CN(C)S(=O)(=O)c1ccc(Cl)cc1 | 15.6 µM |
| C[C@@H]1O[C@@H](O[C@H]2C[C@@H](O)[C@]3(CO)[C@@H]4C(CC[C@]3(O)C2)[C@@]2(O)CC[C@H](C3COC(=O)C3)[C@@]2(C)C[C@H]4O)[C@H](O)[C@H](O)[C@H]1O (some centres not stated) | 2.3 µM |
